# Assays:
# [1] = tested on: SKBR3 cells; test: Growth inhibitory and cytotoxicity assay in SKBR3 cells under normoxia; format: cell-based, human; details: for cytotoxicity measured by trypan blue exclusion: SKBR3, 72 hrs, normal oxygen conditions; for reversal of 2-DG toxicity by added sugar: SKBR3, 1 mM sugar with increasing 2-DG, trypan blue exclusion
# Method: Cytotoxicity assay and Rapid DNA Content Analysis. Cells were incubated for 24 hr at 37° C. in 5% CO2 at which time drug treatments began and were continued for 72 hr. At this time, attached cells were trypsinized and combined with their respective culture media followed by centrifugation at 400 g for 5 min. Pellets containing the cells were either resuspended in 1.5 ml of a medium/trypan blue mixture for cytotoxicity assays or propidium iodide/hypotonic citrate staining solution for determining the nuclear DNA content and cell cycle by a Coulter XL flow cytometer. A minimum of 10,000 cells were analyzed to generate a DNA distribution histogram.
# (§1) Cytotoxicity assay. Cells were incubated for 24 hr at 37° C. in 5% CO2 at which time drug treatments began and continued for 72 hr. At this time, attached cells were trypsinized and combined with their respective culture media followed by centrifugation at 400 g for 5 min. The pellets were resuspended in 1 ml of Hanks solution and analyzed by Vi-Cell (Beckman Coulter, USA) cell viability analyzer.
# [2] = tested on: glycoproteins (ConA binding) in SKBR3 cells; test: HRP-conjugated ConA blot of SKBR3 cell extracts; format: cell-based, human; details: SKBR3, 48 hr, 8 mM sugar analog
# Method: (§2) Western Blot analysis. Cells were plated at 10^4 cell cm^−2 and grown under drug treatment for the indicated times. At the end of the treatment period, cells were collected and lysed with 1% SDS in 80 mM Tris-HCL (ph 7.4) buffer supplemented with a proteinase inhibitor cocktail. DNA was fragmented by sonication and protein concentrations were measured by microBCA protein assay kit (Pierce, USA). Samples were mixed with 2× Laemmli sample buffer (Bio-Rad, USA) and run on a SDS-polyacrylamide gel. Gels were transferred to nitrocellulose membranes (Amersham, USA) and probed with anti-KDEL (Stressgen, Canada) (for Grp78 and Grp94); polyclonal anti-CHOP/[…] (Santa Cruz, USA), polyclonal anti-erbB2 (DAKO, USA). Following probing, membranes were washed and incubated with an HRP conjugated secondary antibody. Chemiluminesence was detected by exposure to film. Where indicated, membranes were stripped with Stripping Buffer (Pierce, USA) and reprobed with anti-actin (Sigma, USA) primary antibody. To analyze conconavalin A (ConA) binding, the membranes were incubated with 0.2 μg/ml HRP-conjugated ConA, and chemiluminescence was detected as described.
# [3] = tested on: erbB2; test: Western blot of erbB2 in SKBR3 cells; format: cell-based, human
# Method: as §2
# [4] = tested on: Grp78 and Grp94; test: Western blot of Grp78 and Grp94 (unfolded protein response) in SKBR3 cells under normoxia; format: cell-based, human; details: for expression of chaperones Grp78 and Grp94: SKBR3, normoxia, 24 hrs, 8 mM sugar analog, tunicamycin 1 micro g/ml; for up-regulation of GRP 78 and 94, dose dependence: select tumor cells, normoxic conditions
# Method: as §2
# [5] = tested on: Grp78 and Grp94; test: Western blot of Grp78 and Grp94 in models of hypoxia A, B & C; format: cell-based
# Method: as §2
# Three in vitro models of hypoxia. We previously characterized three models of anaerobiosis as follows: Model A are tumor cells treated with 0.05 μg/ml of oligomycin (a mitochondrial inhibitor of ATP synthase); Model B are cells that are deficient in mitochondrial DNA and Model C are cells treated in an hypoxic (0.5% O^2) chamber (Reming Bioinstruments, Redfield, N.Y.).
# [6] = tested on: CHOP/GADD154; test: Western blot of CHOP/GADD154 in SKBR3 cells; format: cell-based, human; details: SKBR3, normoxia, 24 hrs; 8 mM sugar analog
# Method: as §2
# [7] = tested on: tumor cell lines; test: Toxicity survey of tumor cell lines under normoxic conditions; format: cell-based; details: for tumor cell lines undergoing significant cell death: 6 mM, normal oxygen tension; for toxicity to select tumor cell types: normoxia
# Method: (§3) Cell types. The Δ^0 cells were isolated by treating osteosarcoma cell line 143B (wt) with ethidium bromide for prolonged periods, as previously described (9). Because the Δ^0 cells are uridine and pyruvate auxotrophs, they were grown in DMEM (GIBCO, USA) supplemented with 10% fetal calf serum, 50 μg/ml of uridine and 100 mM sodium pyruvate. The SKBR3 cell line was obtained from Dr. Joseph Rosenblatt's laboratory at the University of Miami. The pancreatic cancer cell lines 1420 and 1469, the ovarian cancer cell line SKOV3, the cervical cancer cell line HELA, and the osteosarcoma cell line 143B were purchased from ATCC. The non-small cell lung cancer and small cell lung cancer cell lines were derived from patients by Dr. Niramol Savaraj at the University of Miami. SKBR3 and SKOV3 cells were grown in McCoy's 5A medium; 1420, 1469 and 143B were grown in DMEM (GIBCO, USA); and HELA was grown in MEM (GIBCO, USA). The media was supplemented with 10% fetal bovine serum. All cells were grown under 5% CO2 and 37° C.
# as §1
# [8] = tested on: fowl plague virus; details: chick embryo fibroblasts infected with fowl plague virus; cited from earlier work
# [9] = tested on: 1420, pancreatic cancer; test: Cytotoxicity under normoxia, 1420; format: cell-based, human; details: 1420; 1 mM sugar with increasing 2-DG; trypan blue exclusion
# Method: as §3, §1
# [10] = tested on: SKBR3 cells; test: Lactic acid assay in SKBR3 cells; format: cell-based, human; details: 2 mM, 24 hr, 2-FDG vs. 2-DG
# Method: Lactic acid assay. Lactic acid was measured by adding 0.025 ml of deproteinated medium, from treated or non-treated cultures, to a reaction mixture containing 0.1 ml of lactic acid dehydrogenase (1000 units/ml), 2 ml of glycine buffer (glycine, 0.6 mol/L, and hydrazine, pH 9.2), and 1.66 mg/ml NAD. Deproteinization occurred by treating 0.5 ml of medium from test cultures with 1 ml of perchloric acid at 8% w/v, vortexing for 30 s, then incubating this mixture at 4° C. for 5 min, and centrifuging at 1500 g for 10 min. The supernatant was centrifuged three times more, and 0.025 ml of a final clear supernatant was used for lactic acid determinations. Formation of NADH was measured with a Beckman DUr 520 UV/vis spectrophotometer at 340 nm, which directly corresponds to lactic acid levels as determined by a lactate standard curve.
# Lactic acid assay. Lactic acid was measured by adding 0.025 ml of deproteinated medium, from treated or non-treated cultures, to a reaction mixture containing 0.1 ml of lactic dehydrogenase (1000 units/ml), 2 ml of glycine buffer (glycine, 0.6 mol/L, and hydrazine, pH 9.2), and 1.66 mg/ml NAD. […] Formation of NADH was measured with a Beckman DUr 520 UV/vis spectrophotometer at 340 nm, which directly corresponds to lactic acid levels as determined by a lactate standard curve.
# [11] = tested on: SKBR3 cells; test: ATP quantification assay in SKBR3 cells; format: cell-based, human; details: 6 hours, 2-FDG vs. 2-DG
# Method: ATP quantitation assay. The ATP lite kit (Perkin Elmer) can be used to quantify levels of ATP. About 50 μL of cell lysis solution were added to 100 μL of cell suspension in a white-bottom 96-well plate. The plate was incubated at room temperature on a shaker (700 rpm) for five minutes. 50 μL of substrate solution was then added to the wells and shaken (700 rpm) for another five minutes at room temperature. The plate was then dark adapted for ten minutes and measured for luminescence.
# ATP quantification assay. The ATP lite kit (Perkin Elmer) can be used to quantify levels of ATP. About […] of cell lysis solution were added to […] of cell suspension in a white-bottom 96-well plate. The plate was incubated at room temperature on a shaker (700 rpm) for five minutes. About […] solution were then added to the wells and shaken (700 rpm) for another five minutes at room temperature. The plate was then dark adapted for ten minutes and measured for luminescence. To normalize the reduction of ATP production to growth inhibition which results due to treatment with 2-DG or 2-FDG, parallel experiments were run to measure the total protein concentration using a microBCA protein detection kit (Pierce, Rockford, Ill.).
# [12] = tested on: SKBR3 cells; test: Cytotoxicity in SKBR3 cells under hypoxic conditions; format: cell-based, human; details: 2-FDG vs. 2-DG
# Method: as §1, with “Hypoxia. For studies in hypoxic conditions (Model C), cells were seeded and incubated for 24 hr at 37° C. and 5% CO2 as described below for direct cytotoxicity assays. After the 24 hr incubation, cells received drug treatment and were placed in a Pro-Ox in vitro chamber attached to a model 110 oxygen controller ([…] Bioinstruments Co. […] Cytotoxicity” for “Cytotoxicity”
compound,measurement,setting,value
"O=C[C@@H](F)[C@@H](O)[C@H](O)[C@H](O)CO [2-FDM, 2-deoxy-2-fluoro-mannose]",cytotoxicity measured by trypan blue exclusion,[1],toxic
same,rank order in growth inhibiting and killing SKBR3 cells,[1]; normoxia,2-DG>2-FDM>>>2-FDG
same,ConA binding of glycoproteins,[2],decrease ConA binding
same,molecular weight of erbB2,[3],decreased the molecular weight of erbB2
same,expression of chaperones Grp78 and Grp94,[4],both Grp78 and Grp94 are upregulated
same,"up-regulation of GRP 78 and 94, dose dependence",[4],up-regulated by 2-DG and 2-FM in a dose-dependent manner
same,"upregulation of the UPR (Grp78, Grp94)",[5]; hypoxia model C,both chaperones are upregulated
same,"upregulation of the UPR (Grp78, Grp94)",[5]; hypoxia models A and B,no significant upregulation of the UPR
same,induction of GADD154/CHOP,[6],induced
same,toxicity in 2-DG sensitive and 2-DG resistant cell types,[7]; 4 mM,caused toxicity in 2-DG sensitive but not 2-DG resistant cell types
same,tumor cell lines undergoing significant cell death,[7],6 out of 15
same,toxicity to select tumor cell types,[7],toxic to select tumor cell types growing under normoxia
same,order of potency to inhibit viral glycoprotein synthesis,[8],2-DG>2-FDM>2-FDG
tunicamycin [reference compound],ConA binding of glycoproteins,[2],decrease ConA binding
same,expression of chaperones Grp78 and Grp94,[4],both Grp78 and Grp94 are upregulated
same,synthesis of chaperones Grp78 and Grp94,[5]; all three hypoxia models (positive control),induce the synthesis of these chaperones in all three models
same,induction of GADD154/CHOP,[6],induced
"C[C@H](O)[C@@H](O)[C@@H](O)[C@H](O)C=O [fucose, reference compound]",reversal of 2-DG toxicity by added sugar,[1],had no effect
same,reversal of 2-DG toxicity by added sugar,[9],had no effect
"O=C[C@H](F)[C@@H](O)[C@H](O)[C@H](O)CO [2-FDG, 2-deoxy-2-fluoro-glucose, reference compound]",cytotoxicity measured by trypan blue exclusion,[1],is not
same,rank order in growth inhibiting and killing SKBR3 cells,[1]; normoxia,2-DG>2-FDM>>>2-FDG
same,toxicity to SKBR3 cells grown under normoxia (FIG. 1),[1]; normoxia,neither of these agents caused toxicity
same,inhibition of lactate levels (a measure of glycolysis),[10],inhibited lactate levels (a measure of glycolysis) better than the latter
same,ATP depletion,[11],ATP depletion was more prominent
same,toxicity under hypoxic conditions,[12],more toxic than 2-DG
same,ConA binding of glycoproteins,[2],no reduction in ConA binding
same,molecular weight of erbB2,[3],had no effect
same,expression of chaperones Grp78 and Grp94,[4],does not increase the levels of these chaperones as much as 2-DG or 2-FDM
same,"up-regulation of GRP 78 and 94, dose dependence",[4],not
same,induction of GADD154/CHOP,[6],not
same,tumor cell lines undergoing significant cell death,[7],not
same,toxicity to select tumor cell types,[7],not
same,toxicity to cell types that are sensitive to 2-DG,[7]; normoxic conditions,shows no toxicity
same,order of potency to inhibit viral glycoprotein synthesis,[8],2-DG>2-FDM>2-FDG
"O=C(CO)[C@@H](O)[C@H](O)[C@H](O)CO [fructose, reference compound]",reversal of 2-DG toxicity by added sugar,[1],had no effect
same,reversal of 2-DG toxicity by added sugar,[9],had no effect
"O=C[C@@H](Cl)[C@@H](O)[C@H](O)[C@H](O)CO [2-CM, 2-deoxy-2-chloro-mannose]",toxicity to select tumor cell types,[7],toxic to select tumor cell types growing under normoxia
"NC(=O)C(=O)O [oxamate, reference compound]",cytotoxicity measured by trypan blue exclusion,[1],not toxic

# Reference: patent US8242167B2, “Mannose derivatives for killing tumor cells” (University of Miami, priority 2006, dated 2012)
